These results are taken from publication PMC5443783, “Prostaglandin E2 glyceryl ester is an endogenous agonist of the nucleotide receptor P2Y6” (Scientific Reports, 2017).

Several values for one entry are separate records, joined by “and”; a condition that tells them apart may be missing. Identical values can stand only once. Entries after “also recorded” stand apart in the source; their conditions may differ.

In test [1] the target is T1, P2Y6 (Homo sapiens, UniProt Q15077). Nature of the test: Intracellular Ca2+ measurement in HEK293 cells transfected with P2RY6. The class given is cell-based. As to conditions: for effect on cytosolic Ca2+ levels: HEK293 transiently transfected with P2RY6, concentration-dependent. Also noted: expressed in transfected cells; host or cells: HEK293. As for the experimental part:
RAW264.7 cells were grown in DMEM supplemented with 10% FBS, A7r5 (rat […]) cells in DMEM with 10% FBS, and A431 (human squamous carcinoma) cells in RPMI supplemented with 10% FBS. All cell lines were grown at 37 °C in a humidified 5% CO2 incubator. For functional assays, receptor constructs were heterologously expressed in human embryonic kidney (HEK293) cells upon transient or stable transfection. Cells were grown in DMEM/F12 supplemented with 10% FBS, 100 units/ml penicillin, and 100 µg/ml streptomycin. For the cAMP-inhibition assay, ERK1/2 phosphorylation assay, and Ca^2+ mobilization assay, cells were split into 96-well plates (2.0 × 10^4 cells/well) and transfected with 250 ng vector construct using MACSfectin™ (Miltenyi Biotec, Germany) according to manufacturer’s protocol. Empty vector (mock) served as the negative control. For siRNA experiments, cells were seeded in 6-well plates (4.0 × 10^5 and 6.0 × 10^5 cells/well for RAW264.7 and H1819, respectively). RAW264.7 and H1819 cells were transfected with 150 pMol of mP2RY6 siRNA and hP2RY6 siRNA (Santa Cruz Biotechnology, USA), respectively, using Viromer® Blue (Lipocalyx, Germany). As a negative control, control siRNA-A (Santa Cruz Biotechnology, USA) was used. FITC-labelled siRNA served as a transfection control.
To generate a cell line stably expressing P2Y6, HEK293 cells were seeded in 6-well plates (7.5 × 10^5 cells/well) and transfected with 3 µg vector using MACSfectin™ as transfection regent according to the manufacturer’s protocol. The pIRES-eGFP vector served as negative control. Stably transfected HEK293 cells were cultured in the presence of geneticin (500 µg/ml) for selection.
(§1) For fluorometric measurements of intracellular Ca^2+ levels with the FlexStationII instrument (Molecular Devices), RAW264.7 and H1819 cells were seeded into 96-well plates (3.0 × 10^4 cells/well) 24 h prior to assay. Ca^2+ measurements with transiently transfected HEK293 cells were performed 48 h after transfection. Cells were loaded with 200 µl Calcium 5 reagent (Explorer Kit, Molecular Devices, USA) for 60 min at 37 °C, and the assay was performed as described. Agonists and inhibitors were solved in DMSO (100x) and diluted […] in 96-well compound plates containing HBSS. 50 µl of compound solution were added to the assay plate resulting in final concentration of 1% DMSO. Fold-response was calculated by RFUmax − RFUmin (ligand)/RFUmax − RFUmin (vehicle). EC50 values were calculated by using GraphPad Prism6 software (GraphPad, USA).

Test [2] has as its target T1, P2Y6. Nature of the test: IP1 accumulation assay in HEK293 cells transfected with wildtype P2RY6. Also noted: expressed in transfected cells; host or cells: HEK293. Type of test: cell-based. As for the experimental part: To measure intracellular IP3 the HitHunter® Inositol (1,4,5) Triphosphate Assay (DiscoveRx, USA) was used according to manufacturer′s protocol. HEK293 cells stably transfected with hP2RY6 were seeded in a 384-well Black microtiter plate (15,000 cells/well) (Greiner Bio One, Germany) and incubated with indicated concentrations of UDP and PGE2-G for 20 seconds. Reaction was stopped by adding 5 µl 0.2 N perchloric acid and measurement of IP3 was performed with the Fusion AlphaScreen multilabel reader (PerkinElmer Life Sciences) according to manufacturer′s protocol. To measure IP1, HEK293 cells expressing wildtype and mutant P2Y6 were seeded into 384-well plates (5,000 cells/well) 24 h prior assay. After aspiration of the medium, cells were incubated with indicated concentrations of agonists/antagonist for 1 h. IP1 measurements using the IP-one HTFR® assay kit (Cisbio assays, USA) were performed according to manufacturer′s protocol. The assays were performed with a final concentration of 1% DMSO.

For the next test, the system named is H1819 cells. Briefly: Intracellular Ca2+ measurement in H1819 cells. Type of test: cell-based, human. The procedure:
as §1

The test system of another test is HEK293 cells. Briefly: Intracellular Ca2+ measurement in non-transfected HEK293 cells. Type of test: cell-based, human. As to conditions: for effect on intracellular Ca2+: non-transfected HEK293 cells. The procedure:
as §1

Test [3] deals with T2, human TSH receptor (TSHR) (Homo sapiens, UniProt P16473).
T2 construct: HA tag (N); expressed in transfected cells; host or cells: HEK293
Nature of the test: Cell surface expression of TSH receptor, cell surface ELISA. As to conditions: HEK293 transfected with HA-tagged human TSHR, Fig. 5e. The class given is cell-based. The procedure:
To estimate cell surface expression of heterologously expressed receptors carrying an N-terminal HA tag, an indirect cellular ELISA was used[57]. To determine the endogenous cell surface expression of P2Y6, the same ELISA procedure was performed with minor modifications. Briefly, after 4% paraformaldehyde fixation and blocking with 10% FBS, cells were incubated with the primary anti-P2Y6 antibody (sc-15215; Santa Cruz Biotechnology, USA) in 1:1,000 dilution for 1 h. After washing with PBS, cells were incubated with peroxidase-conjugated secondary antibody anti-goat IgG (sc-2020, Santa Cruz Biotechnology, USA) in 1:5,000 dilutions.
(ELISA stands for enzyme-linked immunosorbent assay.)

For test [4], the target named is T1, P2Y6. Nature of the test: Functional readouts at P2Y6, summary statements. The following applies: for EC50: summary value. The class given is cell-based.
For a further test, the system named is RAW264.7 cells. Briefly: Intracellular Ca2+ measurement in RAW264.7 cells. Type of test: cell-based, mouse. The procedure: as §1
In test [5] the target is T1, P2Y6. Nature of the test: ERK1/2 phosphorylation (AlphaScreen SureFire) in P2RY6-transfected HEK293 cells. The class given is cell-based. Also noted: expressed in transfected cells; host or cells: HEK293. As to conditions: P2RY6-transfected HEK293 cells, Fig. 3b. As for the experimental part: Cells were transferred to serum-free medium 2 h prior to assay. Ligands and controls (10 µl of 10× concentrates) were added to 90 µl medium and incubated for 5 min at 37 °C. The final concentration of DMSO was 0.2%. The reaction was stopped by aspiration of the medium and addition of 50 µl lysis buffer (PerkinElmer Life Sciences). To measure ERK1/2 phosphorylation, the AlphaScreen® SureFire ERK 1/2 assay kit (PerkinElmer Life Sciences) was used with the high sensitivity protocol. Phosphorylated ERK1/2 was measured in 384-well white OptiPlate microplates (PerkinElmer Life Sciences) with the Fusion AlphaScreen multilabel reader (PerkinElmer Life Sciences).

The mark [6] stands for this setting: HEK293 transiently transfected with P2RY6, Fig. 2b, read-out: EC50, intracellular Ca2+.
Where [7] appears, read: Fig. 1d, read-out: EC50, intracellular Ca2+ release.

T1 sequence (Q15077 whole entry): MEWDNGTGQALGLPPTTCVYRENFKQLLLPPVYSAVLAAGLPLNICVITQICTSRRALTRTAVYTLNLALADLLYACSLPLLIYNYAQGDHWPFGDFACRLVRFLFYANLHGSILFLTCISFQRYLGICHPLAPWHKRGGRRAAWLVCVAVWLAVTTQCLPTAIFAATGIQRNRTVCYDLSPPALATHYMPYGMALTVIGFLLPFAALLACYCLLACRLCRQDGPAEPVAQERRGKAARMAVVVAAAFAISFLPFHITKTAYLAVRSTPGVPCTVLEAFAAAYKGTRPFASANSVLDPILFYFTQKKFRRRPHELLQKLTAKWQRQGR
T2 sequence (P16473 21-764): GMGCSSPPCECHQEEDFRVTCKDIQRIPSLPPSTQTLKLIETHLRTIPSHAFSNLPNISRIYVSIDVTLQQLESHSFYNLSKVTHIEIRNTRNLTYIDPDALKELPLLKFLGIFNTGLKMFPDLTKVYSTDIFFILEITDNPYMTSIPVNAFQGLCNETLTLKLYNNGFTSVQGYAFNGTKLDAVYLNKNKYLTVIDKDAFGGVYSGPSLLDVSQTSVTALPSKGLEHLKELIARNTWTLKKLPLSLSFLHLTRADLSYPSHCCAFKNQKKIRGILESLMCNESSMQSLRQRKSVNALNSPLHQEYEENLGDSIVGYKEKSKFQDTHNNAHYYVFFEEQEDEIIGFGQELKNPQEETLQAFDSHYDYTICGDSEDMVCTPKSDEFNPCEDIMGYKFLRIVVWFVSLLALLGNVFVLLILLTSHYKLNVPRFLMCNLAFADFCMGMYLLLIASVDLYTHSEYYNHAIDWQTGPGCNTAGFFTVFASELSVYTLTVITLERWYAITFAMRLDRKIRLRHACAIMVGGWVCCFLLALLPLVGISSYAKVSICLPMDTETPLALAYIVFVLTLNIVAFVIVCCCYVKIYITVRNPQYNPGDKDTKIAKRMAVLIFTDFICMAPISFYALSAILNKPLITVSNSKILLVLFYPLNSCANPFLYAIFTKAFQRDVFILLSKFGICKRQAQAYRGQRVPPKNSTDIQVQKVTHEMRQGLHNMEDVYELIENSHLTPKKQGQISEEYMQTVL

With “Prostaglandin E2 glyceryl ester [PGE2-G]”, the “ratio of EC50 values UDP / PGE2-G” value at P2Y6 [1] (Ca2+ measurements in transfected HEK cells, Fig. 2b) was ~ 65,000; on P2Y6 [2] (IP1 accumulation, Fig. 6a), ~ 63,000. In addition, the EC50 (in general, the concentration needed to bring the measured effect to its halfway point) is ~0.001 nM and 0.0012 nM on P2Y6 [1] (setting [6]); ~0.001 nM at P2Y6 [4]. Also, the “effect on cytosolic Ca2+ levels” value on P2Y6 [1] is “increased the cytosolic Ca^2+ levels”. Further, the “Maximum RFU for PGE2-G” value in the test on H1819 cells (control (1% DMSO) 5,247 ± 2,016) is given as 13,143 ± 2,157 RFU; with HEK293 cells (HEK293 cells, control (1% DMSO) 2,106 ± 1,193), 2,193 ± 252 RFU; in the test with RAW264.7 cells (control (1% DMSO) 1,560 ± 479), 3,649 ± 678 RFU. For the same molecule, the “effect on intracellular Ca2+” value with HEK293 cells is listed as “no effect”. For the same molecule, the “effect on cell surface expression of the TSH receptor” value in test [3] is given as “no effect”. For the same molecule, at P2Y6 [4] (most functional assays, Figs 3a–c and 6a), the Emax values result is on record as “slightly lower compared to UDP”. Besides, the ERK1/2 phosphorylation entry at P2Y6 [5] is “led to ERK1/2 phosphorylation; also recorded: induce ERK1/2 phosphorylation”.

Regarding `O=c1ccn([C@@H]2O[C@H](COP(=O)(O)OP(=O)(O)O)[C@@H](O)[C@H]2O)c(=O)[nH]1` [UDP], the EC50 at P2Y6 [1] (HEK293 stably transfected with P2RY6, Fig. 5, read-out: EC50, Ca2+ mobilization assay) was 57.1 ± 2.5 nM; at P2Y6 [1] (setting [6]), 78.3 ± 6.7 nM; on P2Y6 [2] (HEK293 stably transfected with P2RY6, Fig. 5), 77.3 ± 3.4 nM; at P2Y6 [2] (agonist alone, HEK293 transfected with P2RY6, Fig. 6a), 18.9 ± 2.3 nM; with H1819 cells (setting [7]) it was 25.9 ± 2.8 nM; at P2Y6 [4] it was ~50 nM. Further, in the test on RAW264.7 cells (setting [7]), the EC50 came out at 38.4 ± 1.9 nM. On P2Y6 [1], the “effect on cytosolic Ca2+ levels” value is reported as “increased the cytosolic Ca^2+ levels”. In the test on HEK293 cells, the “effect on intracellular Ca2+” value was “no effect”. Besides, the “effect on cell surface expression of the TSH receptor” value in test [3] is “no effect”. The ERK1/2 phosphorylation entry at P2Y6 [5] is recorded as “led to ERK1/2 phosphorylation; also recorded: induce ERK1/2 phosphorylation”.
